Assay results from ChEMBL document CHEMBL1201862, “PubChem BioAssay data set” (2004).
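Compound exposure: 48 hours, 5 concentrations, 96-well plates. GI50 = concentration required for 50% inhibition of growth.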 Activity calls are given as the source filed them. No stated cut-off is given here; in the data, active = GI50 up to about 1.1 µM and inactive = higher.

What was measured:
Test in all cases: inhibition of tumour cell growth, NCI panel, 48 h
HOP-62 = test system: HOP-62
UO-31 = test system: UO-31
HL-60 = test system: HL-60
BT-549 = test system: BT-549
CCRF-CEM = test system: CCRF-CEM
SW-620 = test system: SW-620
CAKI-1 = test system: CAKI-1
MDA-N = test system: MDA-N
HT-29 = test system: HT-29
LOX IMVI = test system: LOX IMVI
SF-268 = test system: SF-268
T47D = test system: T47D
K562 = test system: K562
RPMI-8226 = test system: RPMI-8226
MCF7 = test system: MCF7
HCT-15 = test system: HCT-15
SK-MEL-28 = test system: SK-MEL-28
SR = test system: SR
NCI-H522 = test system: NCI-H522
U-251 = test system: U-251

Row | SMILES | GI50 (HOP-62) | GI50 (UO-31) | GI50 (HL-60) | GI50 (BT-549) | GI50 (CCRF-CEM) | GI50 (SW-620) | GI50 (CAKI-1) | GI50 (MDA-N) | GI50 (HT-29) | GI50 (LOX IMVI) | GI50 (SF-268) | GI50 (T47D) | GI50 (K562) | GI50 (RPMI-8226) | GI50 (MCF7) | GI50 (HCT-15) [µM] | GI50 (SK-MEL-28) | GI50 (SR) | GI50 (NCI-H522) | GI50 (U-251)
1 | N#Cc1ccc(OC(=O)c2ccc(NC(=N)N)cc2)cc1.c1ccncc1 | > 100 µM (inactive) | > 100 µM (inactive) | 60.1 µM (inactive) | 88.7 µM (inactive) | 22.2 µM (inactive) | 35.5 µM (inactive) | 80 µM (inactive) | 64.3 µM (inactive) | 53.7 µM (inactive) | 80.7 µM (inactive) | 51.1 µM (inactive) | 42.5 µM (inactive) | 42 µM (inactive) | 40.8 µM (inactive) | 39.9 µM (inactive) | 46.9 | > 100 µM (inactive) | 51.9 µM (inactive) | 30 µM (inactive) | 61.2 µM (inactive)
2 | COc1cc2c(cc1OC)C(=O)/C(=C/c1cc(C)c(O)c(C)c1)C2 | < 0.01 µM (active) | > 100 µM (inactive) | < 0.01 µM (active) | > 100 µM (inactive) | < 0.01 µM (active) | < 0.0106 µM (active) | 0.0803 µM (active) | < 0.01 µM (active) | 5.19 µM (inactive) | < 0.0259 µM (active) | < 0.0143 µM (active) | > 100 µM (inactive) | < 0.01 µM (active) | < 0.01 µM (active) | < 0.0148 µM (active) | < 0.01 | > 75.7 µM (inactive) | < 0.01 µM (active) | < 0.01 µM (active) | < 0.01 µM (active)
3 | CCN(CC)C1Oc2cc3c(cc2C(c2cc(OC)c(O)c(OC)c2)C1C)OCO3 (stereo not given) | 10.1 µM (inactive) | 19.6 µM (inactive) | 2.69 µM (inactive) | 6.95 µM (inactive) | 7.29 µM (inactive) | 4.62 µM (inactive) | 12.5 µM (inactive) | 1.98 µM (inactive) | 7.31 µM (inactive) | 9.66 µM (inactive) | 16.3 µM (inactive) | 16.8 µM (inactive) | 2.98 µM (inactive) | 7.14 µM (inactive) | 4.85 µM (inactive) | 12.6 | 14.2 µM (inactive) | 4.57 µM (inactive) | 3.1 µM (inactive) | 10.5 µM (inactive)
4 | CCN(CC)C1Oc2cc3c(cc2C(c2cccc(OC)c2O)C1C)OCO3 (stereo not given) | 5.28 µM (inactive) | 9.38 µM (inactive) | 2.99 µM (inactive) | 7.18 µM (inactive) | 3.94 µM (inactive) | 4.33 µM (inactive) | 5.6 µM (inactive) | 1.7 µM (inactive) | 4.16 µM (inactive) | 4.31 µM (inactive) | 6.62 µM (inactive) | 14.5 µM (inactive) | 3.75 µM (inactive) | 3.24 µM (inactive) | 9.55 µM (inactive) | 4.79 | 5.96 µM (inactive) | 4.75 µM (inactive) | 2.41 µM (inactive) | 3.69 µM (inactive)
5 | O=C(O)C(Cl)(c1ccccc1)c1ccccc1 | > 100 µM (inactive) | > 100 µM (inactive) | > 100 µM (inactive) | > 100 µM (inactive) | > 100 µM (inactive) | > 100 µM (inactive) | > 100 µM (inactive) | > 100 µM (inactive) | > 100 µM (inactive) | > 100 µM (inactive) | > 100 µM (inactive) | > 100 µM (inactive) | 83 µM (inactive) | > 100 µM (inactive) | > 100 µM (inactive) | > 100 | > 100 µM (inactive) | > 100 µM (inactive) | > 100 µM (inactive) | > 100 µM (inactive)
6 | Cc1cc2nc(CC(C(F)(F)F)C(F)(F)F)oc2cc1C | 3.48 µM (inactive) | 7.69 µM (inactive) | 0.968 µM (active) | 0.452 µM (active) | 0.016 µM (active) | 0.608 µM (active) | 2.07 µM (inactive) | 1.91 µM (inactive) | 0.973 µM (active) | 0.209 µM (active) | 2.49 µM (inactive) | 0.308 µM (active) | 0.0931 µM (active) | 0.0931 µM (active) | 2.54 µM (inactive) | 3.47 | 3.24 µM (inactive) | 0.0276 µM (active) | 0.184 µM (active) | 3.15 µM (inactive)
7 | C/C(=N/O)c1cccc(Nc2nc3ccc(Cl)cc3c3[nH]c4ccccc4c23)c1 | 2.77 µM (inactive) | 2.33 µM (inactive) | 3.07 µM (inactive) | 2.93 µM (inactive) | 1.34 µM (inactive) | 1.06 µM (active) | 2.24 µM (inactive) | 1.71 µM (inactive) | 1.23 µM (inactive) | 1.91 µM (inactive) | 1.53 µM (inactive) | 1.58 µM (inactive) | 2.02 µM (inactive) | 1.66 µM (inactive) | 0.935 µM (active) | 1.44 | 2.12 µM (inactive) | 1.24 µM (inactive) | 1.12 µM (active) | 2.44 µM (inactive)
8 | C#CCn1c(I)cc2c(c1=O)COC(=O)[C@]2(O)CC | > 100 µM (inactive) | > 100 µM (inactive) | > 100 µM (inactive) | > 100 µM (inactive) | > 100 µM (inactive) | > 100 µM (inactive) | > 100 µM (inactive) | > 100 µM (inactive) | > 100 µM (inactive) | > 100 µM (inactive) | > 100 µM (inactive) | > 100 µM (inactive) | > 100 µM (inactive) | > 100 µM (inactive) | > 100 µM (inactive) | > 100 | > 100 µM (inactive) | > 100 µM (inactive) | > 100 µM (inactive) | > 100 µM (inactive)
9 | Cc1cc2c(=O)[nH]nc(N)c2c(N)n1 | > 100 µM (inactive) | > 100 µM (inactive) | > 100 µM (inactive) | > 100 µM (inactive) | > 100 µM (inactive) | > 100 µM (inactive) | > 100 µM (inactive) | > 100 µM (inactive) | > 100 µM (inactive) | > 100 µM (inactive) | > 100 µM (inactive) | > 100 µM (inactive) | > 100 µM (inactive) | > 100 µM (inactive) | > 100 µM (inactive) | > 100 | > 100 µM (inactive) | > 100 µM (inactive) | > 100 µM (inactive) | > 100 µM (inactive)
10 | CCCCOC(=O)Nc1ccc(S(=O)(=O)Nc2ccccc2Cl)cc1 | 21.7 µM (inactive) | 25.6 µM (inactive) | 16.9 µM (inactive) | 22.5 µM (inactive) | 19.2 µM (inactive) | 14.1 µM (inactive) | 19.5 µM (inactive) | 17.6 µM (inactive) | 21 µM (inactive) | 18.1 µM (inactive) | 16.9 µM (inactive) | 26.5 µM (inactive) | 17.5 µM (inactive) | 16.3 µM (inactive) | 19.2 µM (inactive) | 21.3 | 19.6 µM (inactive) | 4.04 µM (inactive) | 18.5 µM (inactive) | 17.5 µM (inactive)
11 | COC(=O)Nc1nc2cc(S(=O)(=O)n3nnc4ccccc43)ccc2[nH]1 | 15.8 µM (inactive) | > 100 µM (inactive) | 66.2 µM (inactive) | 17.6 µM (inactive) | > 100 µM (inactive) | > 100 µM (inactive) | 54.2 µM (inactive) | > 100 µM (inactive) | > 100 µM (inactive) | > 100 µM (inactive) | 21.5 µM (inactive) | 37.8 µM (inactive) | > 100 µM (inactive) | 0.708 µM (active) | 28.1 µM (inactive) | > 100 | > 100 µM (inactive) | 75.2 µM (inactive) | 36.8 µM (inactive) | 26.6 µM (inactive)
12 | O=C1N[C@@H]2c3c(csc3Br)C(=O)[C@@H]2O1 | 53.2 µM (inactive) | 20.9 µM (inactive) | 24.3 µM (inactive) | 38.5 µM (inactive) | 15 µM (inactive) | 20.2 µM (inactive) | 20.8 µM (inactive) | 25.1 µM (inactive) | 38.5 µM (inactive) | 19 µM (inactive) | 27 µM (inactive) | 28.8 µM (inactive) | 21.5 µM (inactive) | 26.9 µM (inactive) | 32.6 µM (inactive) | 31.5 | 33.3 µM (inactive) | 26.1 µM (inactive) | 30.1 µM (inactive) | 24.2 µM (inactive)
13 | COc1ccc(-c2c(C#N)c(S)n(NS(=O)(=O)c3ccccc3)c(=O)c2C#N)cc1 | > 100 µM (inactive) | 65 µM (inactive) | 47.1 µM (inactive) | 14.3 µM (inactive) | 24.3 µM (inactive) | 40.9 µM (inactive) | > 72.8 µM (inactive) | 45.6 µM (inactive) | 45.6 µM (inactive) | 35.9 µM (inactive) | 62.7 µM (inactive) | 36.1 µM (inactive) | 42.5 µM (inactive) | 42.8 µM (inactive) | 59.6 µM (inactive) | 40.6 | > 100 µM (inactive) | 23.1 µM (inactive) | 26.4 µM (inactive) | 40.4 µM (inactive)
14 | CCOC(=O)c1c(Nc2ccccc2)sc2cccnc12 | 35.5 µM (inactive) | 1.94 µM (inactive) | 15.1 µM (inactive) | 18.7 µM (inactive) | 10.5 µM (inactive) | 24 µM (inactive) | 37.2 µM (inactive) | 6.73 µM (inactive) | 5.48 µM (inactive) | 18.2 µM (inactive) | 29.9 µM (inactive) | 28 µM (inactive) | 8.36 µM (inactive) | 2.05 µM (inactive) | 7.76 µM (inactive) | 21.7 | 20.8 µM (inactive) | 9.44 µM (inactive) | 21 µM (inactive) | 2.43 µM (inactive)
